Where two headings read alike, the source gives them in different places.
How the values were obtained:
EcIspE = target: T1, EcIspE (Escherichia coli, UniProt P62615); test: EcIspE enzymatic assay (coupled to PK/LDH); assay type: biochemical
T1 construct: made in house
Excerpt: Another approach to address this issue is to perform the IspE assay with one or several orthologues of PfIspE. […] The IspE assay setup was identical for both Pf and EcIspE orthologs except for the target enzyme used. One of the setup requirements was that the enzymatic activity of the auxiliary enzymes PK/LDH exceeded the activity of the target enzyme IspE not less than a factor of ten.[10] We investigated, if the inhibition of the auxiliary enzymes may substantially influence the IC50 values obtained from the coupled IspE assay.
1.1 General Procedure for Enzymatic Assay
The cloning, expression and purification of Plasmodium falciparum[1] and Escherichia coli[2,3] and their subsequent assays followed the previously reported procedures .[1] In some specified cases, the tested compound was dissolved in methanol or acetonitrile for the assay .
(§1) Due to the nature of the study, some decomposition samples w ere only tested once and thus, for some formal standard error, […]
(§2) For the final purified compounds, replicates were measured and standard deviation was calculated at least from two replicates. […]
2.) Decomposition Study Procedure
All reagents and solvents were of commercial quality and used without further purification.
Low resolution mass analytics and purity controls were carried out using an Ultimate 3000-ISQ liquid-chromatography mass spectrometry (LCMS) system (Thermo Fisher […]

[1] = tested on: Plasmodium falciparum drug-sensitive NF54; test: Antimalarial assay, [3H]hypoxanthine incorporation; assay type: cell-based; conditions: for IC50: Plasmodium falciparum, read-out: PfNF54 IC50
Protocol: as §1
For the final purified compounds, replicates were measured and standard deviation was calculated at least from two replicates.
1.2 General Procedure for Antimalarial Assay
Plasmodium falciparum drug-sensitive NF54 (airport strain from The Netherlands, provided by F. Hoffmann-La Roche Ltd) was cultivated in a variation of the medium consisting of RPMI 1640 supplemented with 0.5% ALBUMAX® II, 25 mM Hepes, 25 mM NaHCO3 (pH 7.3), 0.36 mM hypoxanthine, and 100 μg/mL neomycin, as previously described.[4,5] Human erythrocytes served as host cells.
Cultures were maintained in an atmosphere of 3% O2, 4% CO2, and 93% N2 in humidified modular chambers at 37 °C. Compounds were dissolved in MeOH (10 mM), diluted in hypoxanthine-free culture medium and titrated in duplicates over a 64-fold range in 96 well plates. Infected erythrocytes (1.25% final hematocrit and 0.3% final parasitemia) were added into the wells. After 48 h incubation, 0.25 μCi of [3H]hypoxanthine was added per well and plates were incubated for an additional 24 h. Parasites were harvested onto glass-fiber filters and radioactivity was counted using a Betaplate liquid scintillation counter (Wallac, Zurich). Chloroquine […]
The results were recorded and expressed as a percentage of the untreated controls. Fifty percent inhibitory concentrations (IC50) were estimated by linear interpolation.[6] […]

A549 = test: Cytotoxicity assay A549; assay type: cell-based; conditions: Homo sapiens, old sample before becoming aware of the decomposition, read-out: %-inh. A549
Protocol: as §1, §2
(§3) 1.3 General Procedure for Cytotoxicity Assay
(§4) Cytotoxicity assays based on the human lung adenocarcinoma (A549), human embryonic kidney (Hek293) and human hepatocellular carcinoma (HepG2) cell lines were performed as described previously.[7] […]

HEK293 = test: Cytotoxicity assay HEK293; assay type: cell-based; conditions: Homo sapiens, old sample before becoming aware of the decomposition, read-out: %-inh. HEK293
Protocol: as §1, §2, §3, §4

HepG2 = test: Cytotoxicity assay HepG2; assay type: cell-based; conditions: Homo sapiens, old sample before becoming aware of the decomposition, read-out: %-inh. HepG2
Protocol: as §1, §2, §3, §4

T1 sequence (P62615 whole entry): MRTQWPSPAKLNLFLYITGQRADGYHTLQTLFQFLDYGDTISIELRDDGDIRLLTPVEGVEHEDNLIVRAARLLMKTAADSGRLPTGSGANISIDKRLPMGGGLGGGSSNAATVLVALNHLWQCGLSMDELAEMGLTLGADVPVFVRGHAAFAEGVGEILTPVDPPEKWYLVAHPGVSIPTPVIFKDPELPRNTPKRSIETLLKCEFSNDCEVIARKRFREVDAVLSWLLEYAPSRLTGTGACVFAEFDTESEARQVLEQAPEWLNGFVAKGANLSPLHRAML

## CCn1c(C)cc(-c2csc(Nc3ccccc3C(F)(F)F)n2)c1C [Compound 1]
EcIspE; 10 mM DMSO stock stored at +4 °C, measured after 3 months
  IC50: 71 ± 10 µM
EcIspE; 10 mM DMSO stock stored at RT, measured after 3 months
  IC50: 101 ± 14 µM
EcIspE; 10 mM DMSO stock stored at −20 °C, measured after 3 months
  IC50: > 500 µM
EcIspE; analytical sample, DMSO at RT, 0 days of incubation, dissolved in methanol shortly before the assay
  IC50: > 500 µM
EcIspE; analytical sample, DMSO at RT, 1 day of incubation, dissolved in methanol shortly before the assay
  IC50: > 500 µM
EcIspE; analytical sample, DMSO at RT, 2 days of incubation, dissolved in methanol shortly before the assay
  IC50: > 500 µM
EcIspE; analytical sample, DMSO at RT, 3 days of incubation, dissolved in methanol shortly before the assay
  IC50: 397 µM
EcIspE; analytical sample, DMSO at RT, 4 days of incubation, dissolved in methanol shortly before the assay
  IC50: 75 ± 16 µM
EcIspE; fractions of second purification, dissolved in ACN
  IC50: > 1370 µM
EcIspE; fractions of second purification, dissolved in MeOH
  IC50: > 1370 µM
EcIspE; old decomposed sample, control run at the same time as the temperature study
  IC50: 32 ± 6 µM
[1]; NF54, 48 h, analytical sample, DMSO at RT, 2 days of incubation, dissolved in methanol shortly before the assay
  IC50: 3.5 ± 0.3 µM
[1]; NF54, 96 h, analytical sample, DMSO at RT, 4 days of incubation, dissolved in methanol shortly before the assay
  IC50: 2.7 ± 0.3 µM
[1]; NF54, fresh batch
  IC50: 7.3 ± 0.8 µM
[1]; NF54, old batch (decomposed DMSO stock)
  IC50: 0.43 ± 0.01 µM
[1]; fresh batch compared with old decomposed batch
  reduction in activity against PfNF54, fresh batch vs old batch: 17 fold
A549
  inhibition at 100 µM: -0.3%
HEK293
  inhibition at 100 µM: 28%
HepG2
  inhibition at 100 µM: 44%

Source: article PMC8360061, “Search for the Active Ingredients from a 2‐Aminothiazole DMSO Stock Solution with Antimalarial Activity” (Chemmedchem, 2021)
